In the supplement of paper PMC10307832:

Legend:
Experiment in all cases: relative viability (nuclei count vs DMSO), 5 days (fraction); higher = more cells survive
[1] = compound: COc1cc(Nc2ncc(F)c(Nc3ccc4c(n3)NC(=O)C(C)(C)O4)n2)cc(OC)c1OC [R406] + CS(=O)(=O)CCNCc1ccc(-c2ccc3ncnc(Nc4ccc(OCc5cccc(F)c5)c(Cl)c4)c3c2)o1 [Lapatinib] (partner 2 µM)
How it was run: (§1)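 The day after seeding in 1536-well plates, lung cancer cell lines were treated by pin tool with a single drug, or with a fixed anchor-drug dose together with five library-drug doses (not always all listed) in √10 steps. After 5 days, a combined fix-and-stain solution (final 0.05% Triton X-100, 1% formaldehyde, 1 ug/ml Hoechst) was added. Nuclei counted on 4× images gave relative viability as treated counts over vehicle counts, reported as the median of duplicate plates.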

[2] = compound: COc1cc(Nc2ncc(F)c(Nc3ccc4c(n3)NC(=O)C(C)(C)O4)n2)cc(OC)c1OC [R406] + COc1cc2c(Oc3ccc(NC(=O)C4(C(=O)Nc5ccc(F)cc5)CC4)cc3F)ccnc2cc1OCCCN1CCOCC1 [Foretinib] (partner 0.25 µM)
How it was run: as §1

[3] = compound: O=C(/C=C/c1cccnc1)NCCCCC1CCN(C(=O)c2ccccc2)CC1 [Daporinad]
How it was run: (§2)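 Lung cancer cell lines were seeded into 1536-well plates, kept overnight at 37 °C and pinned with five library-drug doses (not always all listed) spaced by √10. After 5 days, nuclei were Hoechst-stained, imaged at 4× and counted with MetaXpress. Viability is treated-well nuclei over vehicle-well nuclei, taken as a median across plates. Plates needed control CV below 25% and at least one doubling.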

[4] = compound: COc1cc(Nc2ncc(F)c(Nc3ccc4c(n3)NC(=O)C(C)(C)O4)n2)cc(OC)c1OC [R406]
How it was run: as §2

Cell Line: UMC-11
- relative viability ([1]; first compound 0.08 µM): 0.952
- relative viability ([1]; first compound 0.253 µM): 1.08
- relative viability ([1]; first compound 0.8 µM): 1.06
- relative viability ([1]; first compound 2.53 µM): 0.241
- relative viability ([1]; first compound 8 µM): 0.378
- relative viability ([2]; first compound 0.08 µM): 1.11
- relative viability ([2]; first compound 0.253 µM): 1.09
- relative viability ([2]; first compound 0.8 µM): 0.987
- relative viability ([2]; first compound 2.53 µM): 0.789
- relative viability ([2]; first compound 8 µM): 0.499
- relative viability ([3]; 0.0005 µM): 0.963
- relative viability ([3]; 0.001581 µM): 1.07
- relative viability ([3]; 0.005 µM): 1.03
- relative viability ([3]; 0.01581 µM): 1.05
- relative viability ([4]; 0.08 µM): 0.964
- relative viability ([4]; 0.253 µM): 1.15
- relative viability ([4]; 0.8 µM): 1.16
- relative viability ([4]; 2.53 µM): 0.861
- relative viability ([4]; 8 µM): 0.481
